From US7585997B2, “Compounds and compositions for treating dysproliferative diseases, and methods of use thereof” (Chesterford Enterprises Limited, priority 2003, dated 2009)
Read-outs that look alike come from different tables or passages of the source.

How the values were obtained:
Type in all cases: cell-based
[1] = system: BxPC3, carcinoma of pancreas; experiment: Cell growth inhibition, BxPC3 cells; details: Homo sapiens, read-out: IC50, BxPC3, pancreas
[2] = system: HT-29 human colon adenocarcinoma; experiment: Cell growth inhibition, HT-29 cells
[3] = system: JB6c141 rat skin cells; experiment: Colony Formation Assay (soft agar assay for colony formation); details: 100 micromolar, 14 days, with or without epidermal growth factor
Description: The Colony Formation Assay, also known as “soft agar assay for colony formation” as described by David Bowtell (accessed on the Internet as recently as on Dec. 29, 2003 at http://grimwade.biochem.unimelb.edu.au/bowtell/cellbiol/sect71.htm) was also used to asses the neoplastic cell growth inhibitory effect of these compounds and using the JB6c141 rat skin cells. Briefly, and following the plating of cells in the presence or absence of epidermal growth factor and in each case, in the presence or absence of the test compound, they were incubated at […] in a humidified incubator for 14 days, when plates were stained 0.005% Crystal Violet for >1 hour, colonies were counted using a dissecting microscope.

[4] = HT-29, 24 h, read-out: IC50, HT-29, colon
[5] = HT-29, 24 hr, read-out: IC50, HT-29, colon

SMILES | IC50 ([1]; BXPC-3, 24 hr) | IC50 [2, 5] | IC50 [2, 4] | also measured
CC(=O)Oc1ccccc1C(=O)Nc1ccc(CBr)cc1 [Compound 29, 2-(acetyloxy)benzoic acid 4-(bromomethyl)phenyl amide] |  |  | 7 ± 2 µM | IC50 ([1]; BXPC-3, 24 h): 18 ± 3 µM
CC(C(=O)Oc1ccc(COc2ccc([N+](=O)[O-])cc2[N+](=O)[O-])cc1)c1ccc(-c2ccccc2)c(F)c1 (stereo not drawn) [Compound 1] |  |  |  | IC50 ([2]; HT-29, 48 h): ~73 µM; colony formation [3]: abolished colony formation
O=C(/C=C/c1ccc(O)c(O)c1)Oc1ccc(CO[N+](=O)[O-])cc1 [Compound 41, caffeic acid 4-(nitrooxymethyl)phenyl ester] |  |  | ~0.5 µM | 
O=C(/C=C/c1ccc(O)c(O)c1)Oc1ccc(CCl)cc1 [Compound 47, caffeic acid 4-(chloromethyl)phenyl ester] |  |  | 0.25 µM | 
CC(=O)Oc1ccccc1C(=O)Nc1ccc(CCl)cc1 [Compound 26, 2-(acetyloxy)benzoic acid 4-(chloromethyl)phenyl amide] |  |  | 12 ± 3 µM | 
O=C(O)/C=C/c1ccc(O)c(O)c1 [Caffeic acid, reference compound] | > 1000 µM | > 1000 µM |  | 

Now from value to molecule, other results behind:

IC50 ([1]; BXPC-3, 24 hr) | IC50 [2, 5] | SMILES | IC50 [2, 4] | also measured
> 1000 µM | > 1000 µM | CC(=O)Oc1ccccc1C(=O)O [Aspirin, reference compound] |  | 
 | > 500 µM | O=C(/C=C/c1ccc(O)c(O)c1)Oc1ccc(CO)cc1 [Caffeic acid 4-(hydroxymethyl)phenyl ester] |  | 
 | 150 ± 12 µM | O=C(C=Cc1ccccc1)Oc1ccc(CO)cc1 [Cinnamic acid 4-(hydroxymethyl)phenyl ester] |  | 
> 500 µM | > 500 µM | CC(=O)Oc1ccccc1C(=O)Oc1ccc(CO)cc1 [2-(acetyloxy)benzoic acid 4-(hydroxymethyl)phenyl ester] |  | 
